Results as given in US20140349970A1 (ABBVIE INC., priority 2009, published 2014).

Each molecule was assayed against T1, Syk catalytic domain (aa 356-635 with a C-terminal His-tag) (Homo sapiens, UniProt P43405) (assay: In vitro Syk kinase activity measured by trFRET, Syk catalytic domain). Settings: not given.
T1 construct: His-tag (C); made in house
Type: biochemical
Protocol: In Vitro Syk Kinase Activity Measured by Time-Resolved Fluorescence Resonance Energy Transfer (trFRET)
0.14 nM purified Syk catalytic domain (aa 356-635 with a C-terminal His-tag purified in-house by immobilized metal ion affinity chromatography) was mixed with 0.2 μM peptide substrate (biotin-TYR1, Sequence: Biotin-(Ahx)-GAEEEIYAAFFA-COOH) at varying inhibitor concentrations in reaction buffer: 50 mM MOPSO pH 6.5, 10 mM MgCl2, 2 mM MnCl2, 2.5 mM DTT, 0.01% BSA, 0.1 mM Na3VO4 and 0.001 mM ATP. After about 60 min incubation at rt, the reaction was quenched by addition of EDTA (final concentration: 100 mM) and developed by addition of revelation reagents (final approximate concentrations: 30 mM HEPES pH 7.0, 0.06% BSA, 0.006% Tween-20, 0.24 M KF, 80 ng/mL PT66K (europium labeled anti-phosphotyrosine antibody cat #61T66KLB Cisbio, Bedford, Mass.) and 0.6 μg/mL SAXL (Phycolink streptavidin-allophycocyanin acceptor, cat #PJ255, Prozyme, San Leandro, Calif.). The developed reaction was incubated in the dark either at about 4° C. for about 14 h or for about 60 min at rt, then read via a time-resolved fluorescence detector (Rubystar, BMG) using a 337 nm laser for excitation and monitoring emission wavelengths at 665 nm. Within the linear range of the assay, the observed signal at 665 nm was directly related to phosphorylated product and can be used to calculate the IC50 values.
MOPSO buffer contains: 50 mM MOPSO pH 6.5, 10 mM MgCl2, 2 mM MnCl2, 2.5 mM DTT, 0.01% BSA, and 0.1 mM Na3VO4 HEPES buffer contains: 50 mM HEPES pH 7.1, 2.5 mM DTT, 10 mM MgCl2, 2 mM MnCl2, 0.01% BSA, and 0.1 mM Na3VO4 MOPS buffer contains: 20 mM MOPS pH 7.2, 10 mM MgCl2, 5 mM EGTA, 5 mM Beta-phosphoglycerol, 1 mM Na3VO4, 0.01% Triton-X-100 and 1 mM DTT
Biotin-TYR1-peptide sequence: Biotin-(Ahx)-GAEEEIYAAFFA-COOH Biotin-TYR2-peptide sequence: Biotin-(Ahx)-AEEEYFFLFA-amide KinEASE 51 peptides were purchased from Cisbio (cat #62ST0PEB, Bedford, Mass.)
PT66K was purchased from Cisbio (cat #61T66KLB, Bedford, Mass.) EuSTK was purchased from Cisbio (cat #62ST0PEB, Bedford, Mass.) SAXL was purchased from Prozyme (cat #PJ25S, San Leandro, Calif.) Human T-Blasts IL-2 pSTAT5 Cellular Assay

| Structure (SMILES) | IC50 |
| --- | --- |
| CCCNC(=O)c1ccc(-c2ncn3c2cnc2[nH]ccc23)cc1 [AC.4.7] | 100 to 1000 nM |
| COc1ccc(-c2ncn3c2cnc2[nH]ccc23)cc1OC [AC.4.8] | < 100 nM |
| COc1ccc(-c2ncn3c2cnc2[nH]ccc23)cc1Cl [AC.4.9] | < 100 nM |
| COc1ccc(-c2ncn3c2cnc2[nH]ccc23)cc1C [AC.4.10] | < 100 nM |
| CC(=O)N1CCC[C@@H]1c1nc(-c2ccc(C(C)(C)O)cc2)c2cnc3[nH]ccc3n12 [AC.5.1] | 100 to 1000 nM |
| CC(=O)N[C@@H]1C[C@H](c2nc(-c3ccc(C(C)(C)O)cc3)c3cnc4[nH]ccc4n23)N(S(=O)(=O)C2CC2)C1 [AC.5.2] | 100 to 1000 nM |
| Cc1ncccc1-c1nc(-c2ccc(C(C)(C)O)cc2)c2cnc3[nH]ccc3n12 [AC.5.3] | 100 to 1000 nM |
| CC(C)(O)c1ccc(-c2ncn3c2cnc2[nH]cc(C4=CCNCC4)c23)cc1 [AC.5.4] | 1000 to 10000 nM |
| CC(C)(O)c1ccc(-c2nc(CCCN)n3c2cnc2[nH]ccc23)cc1 [AC.5.5] | 100 to 1000 nM |
| CC(C)(O)c1ccc(-c2nc(CN)n3c2cnc2[nH]ccc23)cc1 [AC.5.6, 2-(4-(1-(Aminomethyl)-6H-imidazo[1,5-a]pyrrolo[2,3-e]pyrazin-3-yl)phenyl)propan-2-ol] | 1000 to 10000 nM |
| CC(C)(O)c1ccc(-c2nc(CNC(=O)CO)n3c2cnc2[nH]ccc23)cc1 [AC.5.7] | 100 to 1000 nM |
| CC(C)(O)c1ccc(-c2nc(C3CC3)n3c2cnc2[nH]ccc23)cc1 [AC.5.8] | < 100 nM |
| CC(=O)N1CCC[C@H]1c1nc(-c2ccc(C(C)(C)O)cc2)c2cnc3[nH]ccc3n12 [AC.5.9] | 1000 to 10000 nM |
| CC(C)(O)c1ccc(-c2nc(C3CCOCC3)n3c2cnc2[nH]cc(C#N)c23)cc1 [AE.1.1] | 1000 to 10000 nM |
| Cc1nc(-c2ccc(CN3CCOCC3)cc2)c2cnc3[nH]ccc3n12 [AH.1.1] | 100 to 1000 nM |
| Cn1ncc2cnc3[nH]c(-c4cccn4CC(=O)O)cc3c21 [AN.1.2, 2-(2-(1-methyl-1,6-dihydropyrazolo[3,4-d]pyrrolo[2,3-b]pyridin-7-yl)-1H-pyrrol-1-yl)acetic acid] | > 10000 nM |
| Cn1cc(-c2cc3c(ncc4cnn(C)c43)[nH]2)c2ccc(C(=O)O)cc21 [AN.1.3] | < 100 nM |
| Cn1nc(-c2ccc(S(C)(=O)=O)cc2)c2cnc3[nH]ccc3c21 [AR.1.1] | 100 to 1000 nM |
| COc1ccc(-c2nn(C)c3c2cnc2[nH]ccc23)cc1 [AU.1.1, 3-(4-methoxyphenyl)-1-methyl-1,6-dihydropyrazolo[3,4-d]pyrrolo[2,3-b]pyridine] | < 100 nM |
| COc1ccc(-c2n[nH]c3c2cnc2[nH]ccc23)cc1 [AU.1.2] | < 100 nM |
| COc1ccc(-c2nn(CCO)c3c2cnc2[nH]ccc23)cc1 [AU.1.3] | 100 to 1000 nM |

Same assay, conditions: Syk catalytic domain (aa 356-635), trFRET, 0.001 mM ATP

| Structure (SMILES) | IC50 |
| --- | --- |
| CC(C)(O)c1ccc(-c2nc(-c3cccnc3)n3c2cnc2[nH]ccc23)cc1 [AC.6.1] | < 100 nM |
| COc1ccc(-c2nn(C)c3c2cnc2[nH]cc(Br)c23)cc1 [AK.1, 8-Bromo-3-(4-methoxyphenyl)-1-methyl-1,6-dihydropyrazolo[3,4-d]pyrrolo[2,3-b]pyridine] | < 100 nM |
| Cn1cc(-c2cc3c(ncc4cnn(C)c43)[nH]2)c2cc(C(=O)O)ccc21 [AN.1, 1-Methyl-3-(1-methyl-1,6-dihydropyrazolo[3,4-d]pyrrolo[2,3-b]pyridin-7-yl)-1H-indole-5-carboxylic acid] | < 100 nM |
| CSc1ccc(-c2nn(C)c3c2cnc2[nH]ccc23)cc1 [AU.1, 1-Methyl-3-(4-(methylthio)phenyl)-1,6-dihydropyrazolo[3,4-d]pyrrolo[2,3-b]pyridine] | < 100 nM |
| Cc1nc(-c2ccc(C(C)(C)O)cc2)c2cnc3[nH]cc(Br)c3n12 [AY.1, 2-(4-(8-Bromo-1-methyl-6H-imidazo[1,5-a]pyrrolo[2,3-e]pyrazin-3-yl)phenyl)propan-2-ol] | < 100 nM |
| CC(C)(O)c1ccc(-c2nc(C3CCCNC3)n3c2cnc2[nH]ccc23)cc1 (stereo not shown) [D.2.1] | < 100 nM |
| CC(C)(O)c1ccc(-c2nc([C@@H]3CCCN(C(=O)C4(C#N)CC4)C3)n3c2cnc2[nH]ccc23)cc1 [D.2.2] | 100 to 1000 nM |

Second part, the molecule after the results:

| IC50 | Structure (SMILES) |
| --- | --- |
| < 100 nM | Cn1ncc2cnc3[nH]c(-c4ccc(C(C)(C)O)cc4)c(C#N)c3c21 [D.2.3] |
| 100 to 1000 nM | CC(C)(O)c1ccc(-c2nc(-c3cccnc3CO)n3c2cnc2[nH]ccc23)cc1 [D.2.4] |
| < 100 nM | CC(C)(O)c1ccc(-c2nc(-c3cccnc3C#N)n3c2cnc2[nH]ccc23)cc1 [D.3.1] |
| 100 to 1000 nM | CN(C)CCNC(=O)Cc1cccc(-c2cc3c(ncc4cnn(C)c43)[nH]2)c1 [Example 1, N-(2-(dimethylamino)ethyl)-2-(3-(1-methyl-1,6-dihydropyrazolo[3,4-d]pyrrolo[2,3-b]pyridin-7-yl)phenyl)acetamide] |
| 1000 to 10000 nM | c1ccc(-c2nc(C3CCCCC3)n3c2cnc2[nH]ccc23)cc1 [Example 2, 1-Cyclohexyl-3-phenyl-6H-imidazo[1,5-a]pyrrolo[2,3-e]pyrazine] |
| 100 to 1000 nM | O=C(O)/C=C/c1nc(C2CCCCC2)n2c1cnc1[nH]ccc12 [Example 3, (E)-3-(1-Cyclohexyl-6H-imidazo[1,5-a]pyrrolo[2,3-e]pyrazin-3-yl)acrylic acid] |
| 100 to 1000 nM | CCc1c(-c2ccc(C(C)(C)O)cc2)[nH]c2ncc3nccn3c12 [Example 4, 2-(4-(1-Ethyl-3H-imidazo[1,2-a]pyrrolo[2,3-e]pyrazin-2-yl)phenyl)propan-2-ol] |
| < 100 nM | COc1ccc2c(c1)c(-c1cc3c(ncc4cnc(CCCNC(C)=O)n43)[nH]1)cn2C [Example 5, N-(3-(7-(5-Methoxy-1-methyl-1H-indol-3-yl)-6H-imidazo[1,5-a]pyrrolo[2,3-e]pyrazin-1-yl)propyl)acetamide] |
| 1000 to 10000 nM | CC(C)(O)c1ccc(-c2nc(-c3cccnc3C#N)n3c2cnc2[nH]ccc23)cc1 [Example 6, 3-(3-(4-(2-Hydroxypropan-2-yl)phenyl)-6H-imidazo[1,5-a]pyrrolo[2,3-e]pyrazin-1-yl)picolinonitrile] |
| 100 to 1000 nM | CC(C)(O)c1ccc(-c2nc(-c3ccccc3CN)n3c2cnc2[nH]ccc23)cc1 [Example 7, 2-(4-(1-(2-(Aminomethyl)phenyl)-6H-imidazo[1,5-a]pyrrolo[2,3-e]pyrazin-3-yl)phenyl)propan-2-ol] |
| < 100 nM | Cn1cc(-c2cc3c(ncc4cnn(C)c43)[nH]2)c2cc(C(=O)NS(C)(=O)=O)ccc21 [Example 8, 1-Methyl-3-(1-methyl-1,6-dihydropyrazolo[3,4-d]pyrrolo[2,3-b]pyridin-7-yl)-N-(methylsulfonyl)-1H-indole-5-carboxamide] |
| 1000 to 10000 nM | COc1ccc2c(c1)c(-c1cc3c4c(cnc3n1COP(=O)(O)O)cnn4C)cn2C [Example 9, (7-(5-Methoxy-1-methyl-1H-indol-3-yl)-1-methylpyrazolo[3,4-d]pyrrolo[2,3-b]pyridin-6(1H)-yl)methyl dihydrogen phosphate] |
| 1000 to 10000 nM | COc1ccc2c(c1)c(-c1cc3c(ncc4cnc(C)n43)n1COP(=O)(O)O)cn2C [Example 10, (7-(5-Methoxy-1-methyl-1H-indol-3-yl)-1-methyl-6H-imidazo[1,5-a]pyrrolo[2,3-e]pyrazin-6-yl) methyl disodium phosphate] |
| 100 to 1000 nM | Cc1nc(-c2ccc(C(C)(C)O)cc2)c2cnc3[nH]c(Br)cc3n12 [Example 11, 2-(4-(7-Bromo-1-methyl-6H-imidazo[1,5-a]pyrrolo[2,3-e]pyrazin-3-yl)phenyl)propan-2-ol] |
| 100 to 1000 nM | COC(=O)Cn1cc(-c2nc(C)n3c2cnc2[nH]ccc23)cn1 [Example 12, Methyl 2-(4-(1-methyl-6H-imidazo[1,5-a]pyrrolo[2,3-e]pyrazin-3-yl)-1H-pyrazol-1-yl)acetate] |
| 100 to 1000 nM | CN(C)CC(=O)NCc1cccc(-c2cc3c(ncc4cnn(C)c43)[nH]2)c1 [J.1.1.1] |
| 100 to 1000 nM | COCCC(=O)NCc1cccc(-c2cc3c(ncc4cnn(C)c43)[nH]2)c1 [J.1.1.2] |
| 100 to 1000 nM | Cn1ncc2cnc3[nH]c(-c4cccc(CNC(=O)CCN5CCOCC5)c4)cc3c21 [J.1.1.3] |
| 100 to 1000 nM | CCCCC(=O)NCc1cccc(-c2cc3c(ncc4cnn(C)c43)[nH]2)c1 [J.1.1.4] |
| < 100 nM | COc1ccc(-c2nc(C(=O)NCCO)n3c2cnc2[nH]ccc23)cc1 [J.1.2.1] |
| < 100 nM | Cc1nc(-c2ccc(C3(O)CCN(C(=O)CC#N)CC3)cc2)c2cnc3[nH]ccc3n12 [J.1.3.1] |
